Source: US11382956B2, “Amylin analogues” (Zealand Pharma A/S, priority 2016, dated 2022)
Numbered stars: 1 amine (or outer) side, 2 acyl side, 3 side chain; on linkers, the order of the positions; unused ones are H or OH. Bridge positions count the residues as written; N and C are the ends. Square brackets hold non-standard residues; d marks the D form. Peptide text beside a SMILES is read from it. * marks the point of attachment. C20 diacid = O=C(O)CCCCCCCCCCCCCCCCCCC(=O)*; γGlu = O=C(O)[C@H](CCC(=O)[*:2])N[*:1]; Hyp = O=C(O)[C@@H]1C[C@@H](O)CN1; NMeI = CC[C@H](C)[C@H](NC)C(=O)O; Aad = N[C@@H](CCCC(=O)O)C(=O)O; Orn = NCCC[C@H](N)C(=O)O; Dap = NC[C@H](N)C(=O)O; Sar = CNCC(=O)O

What was measured:
[1] = target: T1, recombinant human amylin 3 receptor (hAMYR3) (Homo sapiens, UniProt O60896+P30988); assay: hAMYR3 cAMP assay (AlphaScreen) in 1321N1 cells; format: cell-based; settings: cAMP formation, 45 min stimulation
T1 construct: host or cells: human astrocytoma cell line 1321N1
T1 sequence (P30988 25-474): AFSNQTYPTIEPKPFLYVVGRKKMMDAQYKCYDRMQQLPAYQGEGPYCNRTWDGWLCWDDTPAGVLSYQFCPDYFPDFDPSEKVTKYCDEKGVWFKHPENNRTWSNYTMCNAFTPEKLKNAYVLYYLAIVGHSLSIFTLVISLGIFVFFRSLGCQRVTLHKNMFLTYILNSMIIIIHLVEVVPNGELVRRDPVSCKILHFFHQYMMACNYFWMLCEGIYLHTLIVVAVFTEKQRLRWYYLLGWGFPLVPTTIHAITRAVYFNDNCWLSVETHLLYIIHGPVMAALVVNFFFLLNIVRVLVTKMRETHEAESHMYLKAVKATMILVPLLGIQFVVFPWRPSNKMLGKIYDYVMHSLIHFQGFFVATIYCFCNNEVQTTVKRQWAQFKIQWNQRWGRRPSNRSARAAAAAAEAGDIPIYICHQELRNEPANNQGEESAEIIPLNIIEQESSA
T1 sequence (O60896 24-148 partner): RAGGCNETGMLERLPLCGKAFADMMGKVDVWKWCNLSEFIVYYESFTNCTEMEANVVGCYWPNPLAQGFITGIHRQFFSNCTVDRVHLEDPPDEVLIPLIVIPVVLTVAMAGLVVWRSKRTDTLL
In short: (§1)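 1321N1 astrocytoma cells expressing recombinant human calcitonin receptor alone or with RAMP3 (AMY3) stimulated 45 min at room temperature with peptide in IBMX-containing buffer. cAMP quantified by AlphaScreen after 1 h bead incubation; EC50 fitted from at least 7 concentrations.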

[2] = target: T2, recombinant human calcitonin receptor (hCT-R) (Homo sapiens, UniProt P30988); assay: hCT-R cAMP assay (AlphaScreen) in 1321N1 cells; format: cell-based; settings: cAMP formation, 45 min stimulation
T2 construct: host or cells: human astrocytoma cell line 1321N1
T2 sequence (P30988 25-474): T1 sequence (P30988 25-474)
In short: as §1

SMILES | EC50 [1] [pM] | EC50 [2] [pM]
CC[C@H](C)[C@@H](C(=O)N[C@@H](CC(C)C)C(=O)N[C@@H](CO)C(=O)N[C@@H](CO)C(=O)N[C@H](C(=O)N[C@@H](CCC(=O)O)C(=O)N[C@H](C(=O)NCC(=O)N[C@@H](CO)C(=O)N[C@@H](CC(N)=O)C(=O)N[C@H](C(=O)N1C[C@H](O)C[C@H]1C(N)=O)[C@@H](C)O)C(C)C)[C@@H](C)O)N(C)C(=O)[C@H](C)NC(=O)CN(C)C(=O)[C@H](Cc1ccccc1)NC(=O)[C@H](CO)NC(=O)[C@H](CO)NC(=O)[C@H](CCCNC(=N)N)NC(=O)[C@H](CCC(N)=O)NC(=O)[C@H](CC(C)C)NC(=O)[C@H](Cc1ccccc1)NC(=O)[C@H](Cc1c[nH]cn1)NC(=O)[C@H](C)NC(=O)[C@H](CC(C)C)NC(=O)[C@H](CCCNC(=N)N)NC(=O)[C@H](CCC(=O)O)NC(=O)[C@@H](NC(=O)[C@H](C)NC(=O)[C@@H]1CNC(=O)CCC[C@H](NC(=O)[C@H](CCCNC(=N)N)NC(=O)CC[C@H](NC(=O)CCCCCCCCCCCCCCCCCCC(=O)O)C(=O)O)C(=O)NCC(=O)N[C@@H]([C@@H](C)O)C(=O)N[C@@H](C)C(=O)N[C@@H]([C@@H](C)O)C(=O)N1)[C@@H](C)O [Compound 50, [19CD]-isoGlu-R-Aad()-GTAT-Dap()-ATERLAHFLQRSSF-Gly(Me)-A-Ile(Me)-LSSTEVGSNT-Hyp-NH2] ({C20 diacid-γGlu}-R[Aad]GTAT[Dap]ATERLAHFLQRSSF[Sar]A[NMeI]LSSTEVGSNT[Hyp]-NH2; lactam 2-7) | 1500 | 3300
CC[C@H](C)[C@@H](C(=O)N1CCC[C@H]1C(=O)N[C@@H](CO)C(=O)N[C@@H](CO)C(=O)N[C@H](C(=O)N[C@@H](CCC(=O)O)C(=O)N[C@H](C(=O)NCC(=O)N[C@@H](CO)C(=O)N[C@@H](CC(N)=O)C(=O)N[C@H](C(=O)N1C[C@H](O)C[C@H]1C(N)=O)[C@@H](C)O)C(C)C)[C@@H](C)O)N(C)C(=O)[C@H](C)NC(=O)CN(C)C(=O)[C@H](Cc1ccccc1)NC(=O)[C@H](CO)NC(=O)[C@H](CO)NC(=O)[C@H](CCCNC(=N)N)NC(=O)[C@H](CCC(N)=O)NC(=O)[C@H](CC(C)C)NC(=O)[C@H](Cc1ccccc1)NC(=O)[C@H](Cc1c[nH]cn1)NC(=O)[C@H](C)NC(=O)[C@H](CC(C)C)NC(=O)[C@H](CCCNC(=N)N)NC(=O)[C@H](CCC(=O)O)NC(=O)[C@@H](NC(=O)[C@H](C)NC(=O)[C@@H]1CCCNC(=O)C[C@H](NC(=O)[C@H](CCCNC(=N)N)NC(=O)CC[C@H](NC(=O)CCCCCCCCCCCCCCCCCCC(=O)O)C(=O)O)C(=O)NCC(=O)N[C@@H]([C@@H](C)O)C(=O)N[C@@H](C)C(=O)N[C@@H]([C@@H](C)O)C(=O)N1)[C@@H](C)O [Compound 5, [19CD]-isoGlu-RD()GTAT-Orn()-ATERLAHFLQRSSF-Gly(Me)-A-Ile(Me)-PSSTEVGSNT-Hyp-NH2] ({C20 diacid-γGlu}-RDGTAT[Orn]ATERLAHFLQRSSF[Sar]A[NMeI]PSSTEVGSNT[Hyp]-NH2; lactam 2-7) | 32 | 114
